Biological target: T1, Bcl-2 protein (Recombinant Human Bcl-2 Protein) (Homo sapiens, UniProt P10415)
T1 construct: purchased Novus Biologicals NBP2-34889
Test: AS-MS evaluation of binding of the Example 4 mixture library (1200 compounds/well) to Bcl-2, ASMS ratio (%)
Conditions: Bcl-2 protein; for ASMS ratio (%) n = 1: replicate n = 1; for ASMS ratio (%) n = 2: replicate n = 2
Protocol: DMSO solutions (prepared into approximately 0.58 mM based on calculation from the average molecular weight of each mixture) of 12 types of mixtures that could each contain 100 compounds, i.e., mixAI-B4J-01, mixAI-B1M-01, mixAI-B1K-01, mixAI-BIO-01, mixAI-B1A-01, mixAI-B3A-01, mixAI-B21-01, mixAI-B2L-01, mixAI-B2N-01, mixAI-B2A-01, mixAI-B2Q-01, and mixAI-B2R-01, shown in Table AI-03-B4J-01, Table AI-03-B1M-01, Table AI-03-B1K-01, Table AI-03-B10-01, Table AI-03-B1A-01, Table AI-03-B3A-01, Table AI-03-B21-01, Table AI-03-B2L-01, Table AI-03-B2N-01, Table AI-03-B2A-01, Table AI-03-B2Q-01, and Table AI-03-B2R-01 described in Example 4, were respectively dispensed to a total of 12 wells of MICROPLATE, 96-well, PP, V-BOTTOM (Greiner Bio-One International GmbH, 651201). 70 nL each from the 12 wells was collected into any one well using LABCYTE ECHO® 555 acoustic dispensing system (Beckman Coulter, Inc.) to prepare a sample solution in a mixed state of 1200 compounds (the presence of 1152 compounds was already identified when the mixtures were prepared in Example 4). Further, Bcl-2 protein (Novus Biologicals, NBP2-34889, Recombinant Human Bcl-2 Protein, Lot E60145051) (19.2 μL) prepared at 20.9 μM in advance using a Tris-HCl buffer (25 mM Tris-HCl, pH 7.4, 150 mM NaCl, 0.025% Tween-20, and 1 mM DTT) was added to the well containing the dispensed 1200 compounds (the presence of 1152 compounds was already identified when the mixtures were prepared in Example 4) (final compound concentration: 20 nM, final Bcl-2 concentration: 20 μM), and the plate was incubated at 23° C. for 1 hour in the dark. Subsequently, 200 μL of an assay buffer (25 mM Tris-HCl, pH 7.4, 150 mM NaCl, 0.025% Tween-20, and 1 mM DTT) was centrifuged three times at 2000×G at 4° C. for 2 minutes using 96-well MacroSpin column, P-2 Material (Harvard Bioscience, Inc., 74-5655) that had been allowed to swell to condition the 96-well MacroSpin column. Subsequently, 20 μL of the sample thus incubated was added to the 96-well MacroSpin column, P-2 Material after the completion of conditioning, and SEC treatment was performed by centrifugation at 2000×G for 2 minutes. 32 μL of a 1:1 mixed solution of acetonitrile and methanol (LC/MS grade, FUJIFILM Wako Pure Chemical Corp.) was added to a flow-through liquid from SEC, and the mixture was centrifuged at 1800×G at 4° C. for 5 minutes. The supernatant was used as analysis sample ASMS (A). By a similar operation, a sample prepared at 1200 compounds/well and supplemented with only a Tris-HCl buffer containing no Bcl-2 protein was incubated under the same conditions as above, and the same organic solvent as above was added thereto without 96-well MacroSpin column treatment. A supernatant obtained by a centrifugation operation was used as STD (B). Next, by a similar operation, a sample prepared at 1200 compounds/well and supplemented with only a Tris-HCl buffer containing no Bcl-2 protein was incubated under the same conditions as above and treated with 96-well MacroSpin column in the same manner as above, and the same organic solvent as above was added thereto. A supernatant obtained by a centrifugation operation was used as BK (C). These samples were measured by reverse-phase LC/MS.
Then, the samples A, B and C were analyzed for the 1200 compounds using TraceFinder 5.1 (Thermo Fisher Scientific Inc.) and CHANCE Software (in-house), and an ASMS ratio (%) was calculated according to the following expression.
Although m/z of the MS peaks was confirmed down to four decimal places, 0 at the decimal level may be omitted in the description in Table AJ-01. For example, “587.0000” is also referred to as “587”, “587.1000” is also referred to as “587.1”, “587.1200” is also referred to as “587.12”, and “587.1230” is also referred to as “587.123”.

[1] = AS-MS, mixture of 1200 compounds/well
[2] = mixture library of 1200 compounds/well, compounds assigned by expected m/z

T1 sequence (P10415 whole entry): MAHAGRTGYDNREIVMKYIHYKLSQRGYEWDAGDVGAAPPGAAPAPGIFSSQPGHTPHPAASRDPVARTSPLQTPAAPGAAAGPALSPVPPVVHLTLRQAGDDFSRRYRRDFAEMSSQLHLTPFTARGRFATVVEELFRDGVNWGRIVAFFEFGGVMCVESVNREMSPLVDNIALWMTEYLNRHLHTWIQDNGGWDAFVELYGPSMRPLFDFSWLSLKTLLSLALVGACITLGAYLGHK

ASMS ratio (%) n = 1 [1] [%] | ASMS ratio (%) n = 2 [1] [%] | ASMS ratio (%) n = 2 [2] [%] | Compound
27.6 | 20.2 |  | 4-[4-[[2-[2-(3-Ethoxyphenyl)ethynyl]phenyl]methyl]piperazin-1-yl]-N-propylbenzamide [Compound B1M052-01]
8.1 |  |  | 4-[4-[[4-(3-Ethoxyphenyl)-3-fluorophenyl]methyl]piperazin-1-yl]-N-propylbenzamide [Compound B1M079-01]
−1.4 |  |  | 4-[4-[[4-(3-Ethoxyphenyl)-3-methylphenyl]methyl]piperazin-1-yl]-N-propylbenzamide [Compound B1M058-01]
77.3 | 46.1 |  | 4-[4-[[4-(5-Ethoxypyridin-3-yl)-2-ethylphenyl]methyl]piperazin-1-yl]-N-propylbenzamide [Compound B1M075-01]
2.2 |  |  | 6-[4-[[2-(5-Ethoxypyridin-3-yl)phenyl]methyl]piperazin-1-yl]-N-propylpyridazine-3-carboxamide [Compound B1M043-01]
 |  | −4. | CCOc1cncc(-c2cc(C(=O)N3CCN(c4ccc(C(=O)NCC56CC7CC(CC(C7)C5)C6)nn4)CC3)cc(C(C)(C)C)c2)c1 [Compound B1A016-01, N-(1-Adamantylmethyl)-6-[4-[3-tert-butyl-5-(5-ethoxypyridin-3-yl)benzoyl]piperazin-1-yl]pyridazine-3-carboxamide]
 |  | −5. | CCOc1cccc(-c2cc(CN3CCN(c4ccc(C(=O)NCC56CC7CC(CC(C7)C5)C6)nn4)CC3)cc(OCC)c2)c1 [Compound B1A081-01, N-(1-Adamantylmethyl)-6-[4-[[3-ethoxy-5-(3-ethoxyphenyl)phenyl]methyl]piperazin-1-yl]pyridazine-3-carboxamide]
3.9 | 0.4 |  | CCOc1cccc(-c2cc(CN3CCN(c4ccc(C(=O)NCC(F)(F)F)cc4)CC3)cc(OC(F)(F)F)c2)c1 [Compound B1K063-01, 4-[4-[[3-(3-Ethoxyphenyl)-5-(trifluoromethoxy)phenyl]methyl]piperazin-1-yl]-N-(2,2,2-trifluoroethyl)benzamide]
−1.9 | 2.0 |  | CCCNC(=O)c1ccc(N2CCN(C(=O)c3ccc(-c4cccc(OCC)c4)c(C)c3)CC2)nn1 [Compound B1M003-01]
0.0 | 0.0 |  | CCCNC(=O)c1ccc(N2CCN(C(=O)c3ccc(-c4cncc(OCC)c4)c(C)c3)CC2)nn1 [Compound B1M004-01]
0.0 | 0.0 |  | CCCNC(=O)c1ccc(N2CCN(C(=O)c3ccc(-c4cncc(OCC)c4)c(F)c3)CC2)nn1 [Compound B1M006-01]
0.3 | 0.3 |  | CCCNC(=O)c1ccc(N2CCN(C(=O)c3ccccc3C#Cc3cccc(OCC)c3)CC2)nn1 [Compound B1M007-01]
 | 0.0 |  | CCCNC(=O)c1ccc(N2CCN(C(=O)c3ccccc3C#Cc3cncc(OCC)c3)CC2)nn1 [Compound B1M008-01]
 | 0.0 |  | CCCNC(=O)c1ccc(N2CCN(C(=O)c3cncc(C#Cc4cccc(OCC)c4)c3)CC2)nn1 [Compound B1M009-01]
0.0 | 0.0 |  | CCCNC(=O)c1ccc(N2CCN(C(=O)c3cncc(C#Cc4cncc(OCC)c4)c3)CC2)nn1 [Compound B1M010-01]
18.6 | 7.5 |  | CCCNC(=O)c1ccc(N2CCN(C(=O)CCc3ccccc3-c3cccc(OCC)c3)CC2)nn1 [Compound B1M011-01]

ASMS ratio (%) n = 1 [1] [%] | ASMS ratio (%) n = 2 [1] [%] | ASMS ratio (%) n = 2 [2] [%] | Compound
−3.5 | −2.3 |  | CCCNC(=O)c1ccc(N2CCN(Cc3cc(OCC)cc(-c4cncc(OCC)c4)c3)CC2)nn1 [Compound B1M012-01, 6-[4-[[3-Ethoxy-5-(5-ethoxypyridin-3-yl)phenyl]methyl]piperazin-1-yl]-N-propylpyridazine-3-carboxamide]
2.9 | −1.1 |  | CCCNC(=O)c1ccc(N2CCN(C(=O)c3ccc(-c4cccc(OCC)c4)c4ccccc34)CC2)nn1 [Compound B1M013-01]
4.1 | 0.4 |  | CCCNC(=O)c1ccc(N2CCN(C(=O)c3ccc(-c4cncc(OCC)c4)c4ccccc34)CC2)nn1 [Compound B1M014-01]
−2.4 | −3.0 |  | CCCNC(=O)c1ccc(N2CCN(C(=O)c3cc(-c4cccc(OCC)c4)cc(C(C)(C)C)c3)CC2)nn1 [Compound B1M015-01]
0.0 | 0.0 |  | CCCNC(=O)c1ccc(N2CCN(C(=O)c3cc(-c4cncc(OCC)c4)cc(C(C)(C)C)c3)CC2)nn1 [Compound B1M016-01]
−0.1 | 0.3 |  | CCCNC(=O)c1ccc(N2CCN(C(=O)c3cc(-c4cccc(OCC)c4)cc(C(F)(F)F)c3)CC2)nn1 [Compound B1M017-01]
0.0 | 0.0 |  | CCCNC(=O)c1ccc(N2CCN(C(=O)c3cc(-c4cncc(OCC)c4)cc(C(F)(F)F)c3)CC2)nn1 [Compound B1M018-01]
1.5 | 0.0 |  | CCCNC(=O)c1ccc(N2CCN(C(=O)c3cc(C#Cc4cccc(OCC)c4)cc(C(F)(F)F)c3)CC2)nn1 [Compound B1M019-01]
0.0 | 0.0 |  | CCCNC(=O)c1ccc(N2CCN(C(=O)c3cc(C#Cc4cncc(OCC)c4)cc(C(F)(F)F)c3)CC2)nn1 [Compound B1M020-01]
0.0 | 0.0 |  | CCCNC(=O)c1ccc(N2CCN(C(=O)c3cc(-n4cc(-c5cccc(OCC)c5)cn4)cc(C(F)(F)F)c3)CC2)nn1 [Compound B1M021-01]
−13.6 | 6.7 |  | CCCNC(=O)c1ccc(N2CCN(C(=O)c3cc(-n4cc(-c5cncc(OCC)c5)cn4)cc(C(F)(F)F)c3)CC2)nn1 [Compound B1M022-01]
1.4 | −3.0 |  | CCCNC(=O)c1ccc(N2CCN(C(=O)c3cc(-c4cccc(OCC)c4)cs3)CC2)cc1 [Compound B1M023-01]
0.0 | 0.0 |  | CCCNC(=O)c1ccc(N2CCN(C(=O)c3cc(-c4cncc(OCC)c4)cs3)CC2)cc1 [Compound B1M024-01]
3.6 | −1.2 |  | CCCNC(=O)c1ccc(N2CCN(C(=O)c3ccc(-c4cccc(OCC)c4)c(C)c3)CC2)cc1 [Compound B1M025-01]
0.9 | 0.9 |  | CCCNC(=O)c1ccc(N2CCN(C(=O)c3ccc(-c4cncc(OCC)c4)c(C)c3)CC2)cc1 [Compound B1M026-01]
1.0 | 0.4 |  | CCCNC(=O)c1ccc(N2CCN(C(=O)c3ccc(-c4cccc(OCC)c4)c(F)c3)CC2)cc1 [Compound B1M027-01]

— patent US20250154686A1, “COMPOUND LIBRARY” (CHUGAI SEIYAKU KABUSHIKI KAISHA, priority 2021, published 2025)
